In one data set the test system is IL-1β. The data set is described as follows: Serum IL-1β by ELISA in CIA mice. It is filed as in vivo, DBA/1 mice. The note with it: versus RA model.
The nature of data set [1]: Colloid size by transmission electron microscope (TEM). The format is physicochemical. The conditions noted are these: colloids of HA and PVP 1:1 with drug. How it is done: (§1) The morphology of a colloidal structure of a polymer was analyzed using a scanning electron microscope (SEM; equipped with Type JEOL (JSM-7001F) energy-dispersive X-ray (EDX) Oxford ISIS 300 micro-analysis system). For this experiment, platinum coating was performed at 10 mA to protect colloids from high-energy beams. Also, a decrease in the size of the colloids was confirmed using a transmission electron microscope (TEM), and this confirmation was performed on a very thin sample formed on a copper grid as an upper cover provided in the grid. A TEM micrograph was obtained at 120 kV using a JEM 2010 (HC) (JEOL Ltd, USA) microscope. The amorphous form of the drug in the colloidal structure was confirmed using a random XRD analysis on the sample, and continuously scanned at intervals of 3-80° 2θ using an Ultima IV diffractometer (Rigaku Corporation, Japan) with Bragg-Brentano geometry (2θ/θ) having 40 kV/30 mA X-ray and K-beta filter radiations.

The nature of data set [2]: In vitro drug release by Franz cell diffusion. The format is in vitro ADME. The note with it: pig skin; for release of drug from SPS microneedles: n=3; for time to diffusion after application: from SPS microneedles. The protocol:
In vitro analysis was performed using Franz cell diffusion. Microneedles containing 0.1% NR and 0.75% CAP were applied onto the skin of a dead pig, and put on donor moieties of Franz cells. A receptor moiety was composed of PBS including 20% ethanol. A sample was analyzed at intervals of 0, 0.5, 1, 2, 3, 4, 5, 6, 12, and 24 hours. The quantification of NR and CAP was performed at 559 nm and 280 nm using UV-Vis spectroscopy (Jasco, V650) and Ultra Performance Liquid Chromatography (UPLC) (Acquity UPLC, Waters), respectively. The amounts of NR and CAP in a microneedle patch were determined by dissolving the patch in PBS including 10% ethyl acetate and 20% ethanol, respectively. Thereafter, solid-phase extraction was performed using ethyl acetate as an eluent. A microneedle patch having no drug was used as the control. 0.1% NR dissolved in 20% ethyl acetate and CAP dissolved in 40% ethanol were used in a topical formulation model. This model was most widely used for a formulation of a lipophilic compound in which an organic solvent was used to dissolve the lipophilic drug. 1 mL of such a topical formulation was dropped on the skin of a pig until the topical formulation was diffused to an area of approximately 2 cm^2.
Also, the size of CAP particles released during diffusion of the Franz cells in the skin of a dead pig (FIG. 4C) was measured. PBS solution samples were taken from the Franz cell receptor after 0, 6, 12, 24 hours of application of the CAP microneedles, and the particle sizes of the samples were measured through SEM image analysis.

Data set [3] in a line: Particle size analysis with particle size analyzer. The note with it: for size of commercially available crystalline drug: crude powder, before homogenization. The format is physicochemical. The protocol: Particle size analysis was performed using a particle size analyzer (Schimdzu, Japan). […] To uniformly mix drugs having a polymer combination and a colloid formulation, the drugs were homogenized at an optimum rotary speed of 21,000 rpm for 5 minutes using a rotor homogenizer (Homogenizer Power Gen 500, Fisher Scientific, USA). Ultrasonication was performed at […] using an ultrasonicator (Sonic vibra cell, USA). In the size analysis, distilled water was used as a solvent, and an average of values obtained reading each of samples three times was calculated. The particle size reading was performed at an interval of 30 minutes due to the tendency of the drug to be crystallized when the drug is exposed to distilled water for a long period of time.

The nature of data set [4]: Colloid morphology and size by scanning electron microscope (SEM). It is filed as physicochemical. The note with it: colloids of HA and PVP 1:1 with drug. How it is done:
as §1

The conditions of data set [5]: cited from earlier work.
Setting [6] is: homogenized with CMC (10% by weight), 0.1% NR, 0.75% CAP.
[7] abbreviates: homogenized with HA (10% by weight), 0.1% NR, 0.75% CAP.
Where [8] appears, read: homogenized with PVA (10% by weight), 0.1% NR, 0.75% CAP.
The mark [9] stands for this setting: homogenized with PVP (10% by weight), 0.1% NR, 0.75% CAP.
Where [10] appears, read: homogenized, polymer composition: None.
The mark [11] stands for this setting: in HA and PVP (1:1) smart polymer system.

Some results are limits rather than exact numbers.

Turning to `COc1cc(CNC(=O)CCCC/C=C/C(C)C)ccc1O` [CAP, capsaicin], the “decrease of serum IL-1β level” value in the data set on IL-1β is “approximately 50%”. Also, in data set [1], the “colloidal structure particle size (TEM)” value is given as 154±3 nm. The “release of drug from SPS microneedles” value in data set [2] (0.75% CAP microneedles, after 12 hours of application) is 86%. In addition, the “time to diffusion after application” value in data set [2] is “within an hour”. In addition, the “size of commercially available crystalline drug” value in data set [3] amounted to 4.845±3 μm. Further, the particle size in data set [3] (setting [6]) came out at 43.856 ± 3 μm; in data set [3] (setting [7]), 9.736 ± 2 μm; in data set [3] (setting [8]), 2.676 ± 7 μm; in data set [3] (setting [9]) it was 1.432 ± 3 μm; in data set [3] (setting [10]) it was 0.986±6 μm; in data set [3] (setting [11]) it was 167.4±4 nm. The “circular colloidal particle size (SEM)” value in data set [4] is given as “approximately 155±8 nm”.

For `CCN(CC)c1ccc2nc3c4ccccc4c(=O)cc-3oc2c1` [NR, Nile Red], the “colloidal structure particle size (TEM)” value in data set [1] is listed as 161±32 nm. Besides, in data set [2] (0.1% NR microneedles, after 8 hours of application), the “release of drug from SPS microneedles” value came out at 74%. Besides, in data set [2], the “time to diffusion after application” value was no more than 30 min. Further, in data set [5], the lipophilicity (log P) – broadly, the decadic logarithm of the partition coefficient of the neutral form, usually between octanol and water – was 5. Further, the “size of commercially available crystalline drug” value in data set [3] was 6.723±5 μm. For the same compound, the particle size in data set [3] (setting [6]) is on record as 67.733 ± 8 μm; in data set [3] (setting [7]) it was 11.083 ± 4 μm; in data set [3] (setting [8]), 4.243 ± 8 μm; in data set [3] (setting [9]), 1.564 ± 3 μm; in data set [3] (setting [10]), 1.797±7 μm; in data set [3] (setting [11]) it was 157.4±6 nm. For the same compound, the “circular colloidal particle size (SEM)” value in data set [4] is recorded as “approximately 168±12 nm”.

These data come from US10537518B2, “Homogenization system of drugs into biodegradable polymer: smart polymer system” (Juvic Inc., priority 2015, dated 2020).
